Legend:
HUVEC = assay: Toxicity of peptides to HUVEC in the absence of VEGF (thymidine incorporation); type: cell-based, human; conditions: 100 μM peptide
Procedure: (§1) In a gelatin-coated 48-well plate (Nunc) HUVEC were cultured at a density of 10^4 cells/well at 37° C. for one day, followed by washing the cells three times with serum-free medium 199. After being added with culture media containing VEGF (10 ng/ml, R&D systems) and various concentrations of the screened peptides, the cells were cultured at 37° C. After 24 hours of culturing, the cells were added with [methyl-^3H] thymidine (0.5 μCi/well) and cultured for an additional one day. Before quantification of the radioactivity used for the DNA synthesis with the aid of a liquid scintillation counter, the cells were washed with PBS containing 0.1% albumin, treated with 0.4 N NaOH at room temperature for 20 min for cell lysis, and neutralized with 2 N HCl. In order to determine the toxicity of the peptides, HUVEC were examined as in above using excess peptide (100 μM) in the absence of VEGF.
With reference to FIG. 10b, the radioactivity of the thymidine inserted into the genome of HUVEC is measured in the absence of no peptides and in the presence of 100 μM of each of the three peptides.

[1] = system: HM7 (human colon carcinoma cell line); assay: Growth of HM7 cancer cells in vitro (tetrazolium dye); type: cell-based; conditions: 5×10^3 cells/well
Text: In order to conduct an experiment concerning the metastasis of cancer cells to the liver, cancerous cells were transplanted into the spleen. In this regard, after being anesthetized with diethyl ether, 4-week-old male mice (athymic nude mice, BALB/c/nu/nu, Charles River, Japan) underwent flank incision. […] Four weeks after the injection, the liver was excised from each mouse and measured for weight and the size and number of metastatic nodules formed. Each test group was composed of 6-7 mice. In a student's t-test, a p value less than 0.05 was regarded as being statistically significant. In the test using tetrazolium dye (cell titer 96 Non-radioactive Proliferation Assay Kit, Promega), each peptide was evaluated to have no influence on the growth of the cancer cells (5×10^3 cells/well), so that the possibility that the toxicity of the peptide themselves might inhibit the growth and metastasis of cancer cells could be excluded.

[2] = system: egg CAM (chorioallantoic membranes); assay: Egg CAM assay, angiogenesis induced by VEGF; type: in vivo; conditions: VEGF 10 ng/egg alone or with 1 μg sample; for Angiogenic activity(%): (standard deviation)
Procedure: Fertilized eggs (Pulmuwon, Korea) were incubated at 37° C. under a humidity of 90%. After three days of culturing, the eggs were deprived of about 2 ml of albumin. After four days, eggs were partially deprived of the sheath to make a window with a size of 2×2 cm.
After VEGF (10 ng/egg) was mixed with various amounts of peptides or other samples, 3 μl of each mixture was dropped onto ¼ fraction pieces of thermanox coverslips (Nunc) and dried. The pieces were placed on CAM of 9-day embryonic eggs.
Two days later, the samples were independently observed under anatomical microscopes by two different persons to determine whether new blood vessels are induced by the dropped samples or not. In this regard, the experiment was repeated at least three times using 10 or more eggs per sample and the results are given in Table 5, below.

[3] = system: VEGF-induced DNA synthesis of HUVEC; assay: VEGF-induced DNA synthesis of HUVEC ([methyl-3H] thymidine); type: cell-based, human; conditions: FIG. 10a
Procedure: as §1

VEGF [4] = molecular target: T1, VEGF (Homo sapiens, UniProt P15692); assay: Inhibition of 125I-labeled VEGF binding to its receptors on HUVEC; conditions: for IC50: HUVEC, peptides at 1, 4, 10 and 20 μM/sequence (FIG. 5)
T1 sequence (P15692 27-191 isoform P15692-4): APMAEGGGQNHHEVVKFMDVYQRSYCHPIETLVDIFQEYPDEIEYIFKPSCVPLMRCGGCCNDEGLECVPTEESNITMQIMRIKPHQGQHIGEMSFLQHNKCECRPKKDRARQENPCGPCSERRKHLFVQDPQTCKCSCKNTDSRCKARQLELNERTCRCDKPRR
Procedure: Then, the cells were transferred to a medium (Medium 199/25 mM HEPES, pH 7.4/0.1% bovine serum albumin) containing 0.2 ng of ^125I-labeled VEGF and various concentrations of peptides or combinatorial peptide libraries and reacted at 4° C. for 3 hours. The cells were washed twice with the same medium and once with PBS containing 0.1% albumin to remove the labeled VEGF which still remained uncombined. Thereafter, to quantify the labeled VEGF which bound to receptors present on the surface of the vascular endothelial cells, the cells were treated with 0.5 ml of a lysis solution (20 mM Tris-HCl, pH 7.4/1% TritonX-100) for 20 min, followed by measuring the resulting lysate for radioactivity with the aid of a γ-counter.
The sequence of each peptide was indirectly decided through the analysis of amino acid compositions and its concentration was determined, after which 12 peptides were assayed for antagonism toward VEGF binding at various concentrations (1, 4, 10, and 20 μM/sequence).

VEGF [5] = molecular target: T1, VEGF; assay: 125I-labeled VEGF association with peptides fixed on ELISA plate, competition; type: binding; conditions: determined from IC50: KD=IC50−[non-labeled Competitor]; fixed peptide 100 ng/well; read-out: dissociation constant (KD) between VEGF and peptide
Procedure: To verify the postulated mechanism in which the screened peptides might be associated directly with VEGF so as to inhibit VEGF from binding to its receptors present on the surface of vascular endothelial cells, the following experiments were conducted. Each of the hexa-peptides was fixed on a 96-well ELISA plate at a concentration of 100 ng/well in such a manner that a 20% acetic acid solution containing each peptide was dried in air. The plate was treated three times with a phosphate buffered saline containing 0.1% albumin for 3 min each time. A solution of ^125I-labeled VEGF in the same phosphate buffered saline was added to the plate at a concentration of 0.2 ng/well and incubated at 37° C. for 1 hour to associate the labeled VEGF with the peptides. To remove the […] remaining unassociated, the plate washed four times with the same phosphate buffered saline for 3 min per each time, followed by measuring radioactivity with the aid of a γ-counter. As for the non-specific binding, it was determined by incubation in the presence of either a mixture of the labeled VEGF and non-labeled VEGF or a mixture of the fixed peptide and unfixed peptide in a molar ratio of 1:100. This was set as a negative control.
With reference to FIG. 7, radioactivity measured from ^125I-labeled VEGF associated with fixed peptides is plotted versus molar ratios of a competitor, such as non-labeled VEGF or free peptides, to its counterpart. […] The dissociation constant (KD) between VEGF and each peptide was determined using the IC50) value according to the following formula (De Blasi, A. et al., Trends Pharmacol. Sci., 10, 227 (1989)). KD=IC50−[non-labeled Competitor]

Compound	direct influence on growth of HUVEC / cytotoxicity to endothelial cells (HUVEC)	influence on growth of the cancer cells / cytotoxicity to human colon carcinoma cells [1]	Angiogenic activity eggs/total eggs [2]	Angiogenic activity(%) [2]	inhibition of VEGF-induced growth of vascular endothelial cells [3]	IC50 (VEGF [4]) [µM]	Kd (VEGF [5]) [µM]	inhibition of binding of labeled VEGF165 to its receptors (VEGF [4]; recombinant labeled VEGF165, FIG. 9)
N=C(N)NCCC[C@H](NC(=O)[C@H](CCCNC(=N)N)NC(=O)[C@H](CCCNC(=N)N)NC(=O)[C@H](CCCNC(=N)N)NC(=O)[C@H](CCCNC(=N)N)NC(=O)[C@@H](N)CCCNC(=N)N)C(N)=O [compound 11, NH2-Arg-Arg-Arg-Arg-Arg-Arg-CONH2]	damage neither	damage neither	4/26	15.6(5.1) %	inhibit the VEGF-induced growth of vascular endothelial cells in a dose-dependent pattern	3.8	22	
H-RKKRKR-NH2 [compound 1, NH2-Arg-Lys-Lys-Arg-Lys-Arg-CONH2]	damage neither	damage neither	4/26	15.6(4.5) %	inhibit the VEGF-induced growth of vascular endothelial cells in a dose-dependent pattern	3.4	2	
H-RRKRRR-NH2 [compound 8, NH2-Arg-Arg-Lys-Arg-Arg-Arg-CONH2]	damage neither	damage neither	4/26	15.6(5.1) %	inhibit the VEGF-induced growth of vascular endothelial cells in a dose-dependent pattern	2	5	inhibited

Reference: patent publication US7291601B1, “Arginine-rich anti-vascular endothelial growth factor peptides that inhibit growth and metastasis of human tumor cells by blocking angiogenesis” (Korea Greencross Corp., priority 1999, dated 2007)
